According to patent US12605350B2, “Composition for preventing, ameliorating, or treating disease caused by nitration of tyrosine in proteins comprising tyrosine as effective component” (INDUSTRY-ACADEMIC COOPERATION FOUNDATION GYEONGSANG …, priority 2020, dated 2026):
“Also recorded” adds a separate entry of the source.

Columns and labels:
IL-6 = IL-6 gene expression in kidney tissues (quantitative real-time PCR), renal ischemia and reperfusion; format: in vivo, mouse; settings: L-tyrosine 100 mg/kg oral once a day for 4 days, 24 hours after ischemia and reperfusion
Procedure: (§1) C57BL/6 male mouse (23 to 25 g, KOATECH, South Korea) was allowed to have free access to diets and water in sterile breeding room with constant temperature and humidity. The animals were divided into 3 test groups, i.e., 1) Control group (Sham), 2) Renal ischemia having treatment with prepared solvent and induced reperfusion group (CMC+IR), and 3) Renal ischemia having treatment with L-tyrosine and induced reperfusion group (L-Tyr+IR).
(§2) L-Tyrosine (100 mg/kg) was suspended in 0.5% CMC (carboxymethyl cellulose). The animal was orally administered, once a day for 4 days, with L-tyrosine or the prepared solvent CMC. Thirty minutes after the oral administration on Day 4, renal ischemia was caused. Specifically, the animal abdomen was cut and renal pedicles at both sides were clamped using a Muller atraumatic vascular clamp to cause renal ischemia. After 25 minutes of blood ischemia, the clamp was removed followed by reperfusion. The control group (Sham) received the same operational procedures as above except the ischemia using clamp. […]
(§3) According to Trizol method, total RNA was extracted from kidney tissues, and cDNA was synthesized by using Revert Aid Reverse Transcription System (ThermoFisher). Quantitative PCR was carried out with CFX Connect Real-Time PCR system (Bio-Rad) by using iQ SYBR Green Super mix (Bio-Rad). […]

IL-1β = IL-1β gene expression in kidney tissues (quantitative real-time PCR), renal ischemia and reperfusion; format: in vivo, mouse; settings: L-tyrosine 100 mg/kg oral once a day for 4 days, 24 hours after ischemia and reperfusion
Procedure: as §1, §2, §3

[1] = system: mouse model of epileptic seizure which has been induced to have seizure by kainic acid; assay: immunohistochemistry of hippocampal area (CA1, CA3): neurons (NeuN) and microglia (Iba1) after kainic acid; format: in vivo; settings: tyrosine diet
Procedure: Blood perfusion with PBS and PFA was carried out through animal heart, and the brain was removed and post-fixed in PFA for 15 hours or longer. After washing 3 times for 10 minutes with PBS, brain tissue specimen with thickness of 40 μm was obtained using a vibratome.
In IHC buffer solution (PBS containing 0.3% Triton X-100) in which 3% bovine serum albumin is dissolved, the above-obtained brain specimen was blocked for 1 hour at room temperature and then reacted at 4° C. for 15 hours or longer with a primary antibody (anti-NeuN (Millipore, MAB377, 1:500), anti-Ibal (Wako, 019-19741, 1:200)) (IHC buffer solution containing 3% BSA). After washing 3 times, each for 10 minutes, with the IHC buffer solution, it was reacted with a flurolabeled secondary antibody (anti-Mouse IgG Alexa Fluor 488 (Invitrogen, 1:1000), anti-Rabbit IgG AlexaFluor594 (Invitrogen, […])) for 2 hours at room temperature (IHC buffer solution containing 3% BSA). After washing 3 times, each for 10 minutes, with the IHC buffer solution, the specimen was fixed on a silane-coated glass slide. An anti-fade solution containing DAPI was added onto the specimen and then dried after covering with a cover glass. Signal density of an image photographed with a fluorescent microscope was analyzed by using Image J analysis program.

[2] = system: chronic immobilization stress group (STR); assay: ammonia amount in PFC (Ammonia assay kit); format: in vivo, mouse; settings: stress group fed tyrosine-diet
Procedure: PFC tissues were weighed at a temperature of not more than −20° C. to prevent them from melting. To a 1.5 ml tube, RIPA (proteinase inhibitor cocktail, containing PIC) in an amount of 100 μl per 10 mg of the tissues and suitable number of glass beads were added, and then the tissues were lysed twice for 30 seconds by using a bullet blender. Lysed tissues were spun down, transferred to a fresh 1.5 ml tube, and then subjected to tissue homogenization for 1 min by ultrasonication. After centrifuged for 15 minutes at 12,000 rpm, supernatant was transferred to a fresh 1.5 ml tube and kept at −80° C. until use. […]
To 100 μl of the ammonia assay reagent provided in the Ammonia assay kit, 10 μl of the sample diluted by a factor 2 using PBS buffer solution (i.e., corresponding to 5 μg tissues) were added and incubated for 5 minutes at room temperature. […] After 5 minutes, absorbance was measured at 340 nm by using a microreader (Ainitial).
After adding 10 μl of glutamate dehydrogenase solution and incubation for 5 minutes at room temperature, absorbance was measured at 340 nm by using a microreader (Afinal).
DA340 nm (Afinal-Ainitial) was then calculated, and DA340 nm of the blank control or DA340 nm of buffer solution blank control was excluded by subtraction for the reference and sample, respectively. […]

[3] = system: chronic immobilization stress group (STR); assay: ROS/RNS in plasma and PFC, chronic immobilization stress; format: in vivo, mouse; settings: tyrosine diet (181.2 mg/kg) compared to normal diet
Procedure: Each of the blood and PFC sample was obtained from a mouse anesthetized with CO2 gas. Specifically, mouse blood was collected between 9 AM and 11 AM and stored in a K3EDTA-coated vacuum container. Plasma was obtained by centrifuge for 10 minutes at 4° C., 500×g. PFC sample was weighed first, and, after lysis of the tissues by using Bullet homogenizer, subjected to centrifuge for 20 minutes at 4° C., 12,000 rpm. Thus-obtained plasma and tissue lysate were kept at −80° C. until use. After that, the animal was sacrificed, and a change in corticosterone amount in plasma was examined. ROS/RNS in plasma and PFC was also examined. The corticosterone amount was examined using an ELISA kit (Cayman) by following the manufacturer's protocol, and ROS/RNS was also examined using an ROS/RNS assay kit (Cell Biolabs, San Diego, CA, USA) by following the manufacturer's protocol. The animal models were divided into two groups (i.e., normal group and stress group). The animal of stress group was individually brought by force to a restrainer for 2 hours every day (i.e., between 2 PM and 4 PM) so that it was applied with chronic immobilization stress for 15 days. Change in bodyweight and food intake amount were measured every other day. The normal group and stress group were divided again into a normal diet group and a tyrosine-supplemented diet group (181.2 mg/kg), and then fed.

SMILES	gene expression of IL-6 in kidney tissues (IL-6)	gene expression of IL-1β in kidney tissues (IL-1β)	activity of microglia in hippocampal area (CA1, CA3) [1]	number of the neuronal cells in hippocampal area (CA1, CA3) [1]	ammonia amount in PFC [2]	ROS/RNS in PFC tissues [3]	ROS/RNS in plasma [3]
N[C@@H](Cc1ccc(O)cc1)C(=O)O [L-tyrosine]	suppressed	suppressed	–	–	–	–	–
N[C@@H](Cc1ccc(O)cc1)C(=O)O [tyrosine]	–	–	reduced; also recorded: significant decrease in the activity of microglia	maintained without a loss	reduced to a similar level to the normal group	statistically significant decrease in ROS/RNS	statistically significant decrease in ROS/RNS
